Data set [1] has as its target T1, 1-phosphatidylinositol 3-phosphate 5-kinase (Homo sapiens, UniProt Q9Y2I7). Kind of data set: Inhibition of PIKFYVE in HEK293 cells by NanoBRET assay. Format: cell-based.
Data set [2] relates to Murine hepatitis virus. Kind of data set: microbe, parasite or virus in culture. The settings on record: Murine coronavirus, Astrocytoma delayed brain tumor (DBT) cell.
Description: Antiviral activity against MHV-nLuc infected in DBT cells assessed as effect on cell viability by LDH assay
In data set [3] the target is T1, 1-phosphatidylinositol 3-phosphate 5-kinase. The experiment in a line: Inhibition of human GST tagged PIKFYVE (1493 to end residues) expressed in baculovirus-infected Sf9 cells using PI(3)P:PS as substrate incubated for 60 mins in presence of ATP by ADP-Glo assay. A general note: In ADP-Glo the light output rises with the ADP produced.
Data set [4] has as its system SARS-CoV-2. Kind of data set: microbe, parasite or virus in culture. The settings on record: Severe acute respiratory syndrome coronavirus 2, A549-ACE2.
Description: Antiviral activity against SARS-CoV-2 infected in human A549-ACE2 cells assessed as effect on cell viability pretreated with compound for 1 hr followed by viral infection measured after 2 hrs by Nano-Glo reagent based LDH assay
Data set [5] deals with Serine/threonine-protein kinase PAK 6 (Homo sapiens) (UniProt Q9NQU5). The experiment in a line: Inhibition of human wild type PAK6 assessed as remaining activity at 1 uM by MRC screening assay relative to control.
Data set [6] has as its target Serine/threonine-protein kinase PAK 5 (Homo sapiens) (UniProt Q9P286). Kind of data set: Inhibition of human wild type PAK7 expressed in Escherichia coli assessed as remaining activity using RRRLSFAEPG peptide substrate at 1 uM by MRC screening assay relative to control.
In data set [7] the target is Mitogen-activated protein kinase kinase kinase 3 (Homo sapiens) (UniProt Q99759). The experiment in a line: Inhibition of human wild type partial length MAP3K3 (E320 to Y626 residues) expressed in mammalian expression system assessed as remaining activity at 1 uM by Kinomescan assay relative to control.
The target in data set [8] is Mitogen-activated protein kinase kinase kinase 2 (Homo sapiens) (UniProt Q9Y2U5). The experiment in a line: Inhibition of wild-type human partial length MAP3K2 (S315 to H619 residues) expressed in mammalian expression system assessed as residual binding level at 1 uM by Kinomescan method relative to control.
Data set [9] addresses Mitogen-activated protein kinase kinase kinase 19 (Homo sapiens) (UniProt Q56UN5). Kind of data set: Inhibition of wild-type human partial length YSK4 (T1019 to H1328 residues) expressed in mammalian expression system assessed as residual binding level at 1 uM by Kinomescan method relative to control.
The target in data set [10] is Tyrosine-protein kinase JAK2 (Homo sapiens) (UniProt O60674). The experiment in a line: Inhibition of human wild type JAK2 (JH1) domain assessed as remaining activity at 1 uM by MRC screening assay relative to control.
Sequence of Tyrosine-protein kinase JAK2 (Homo sapiens) (O60674 whole entry, the tested form may be a part): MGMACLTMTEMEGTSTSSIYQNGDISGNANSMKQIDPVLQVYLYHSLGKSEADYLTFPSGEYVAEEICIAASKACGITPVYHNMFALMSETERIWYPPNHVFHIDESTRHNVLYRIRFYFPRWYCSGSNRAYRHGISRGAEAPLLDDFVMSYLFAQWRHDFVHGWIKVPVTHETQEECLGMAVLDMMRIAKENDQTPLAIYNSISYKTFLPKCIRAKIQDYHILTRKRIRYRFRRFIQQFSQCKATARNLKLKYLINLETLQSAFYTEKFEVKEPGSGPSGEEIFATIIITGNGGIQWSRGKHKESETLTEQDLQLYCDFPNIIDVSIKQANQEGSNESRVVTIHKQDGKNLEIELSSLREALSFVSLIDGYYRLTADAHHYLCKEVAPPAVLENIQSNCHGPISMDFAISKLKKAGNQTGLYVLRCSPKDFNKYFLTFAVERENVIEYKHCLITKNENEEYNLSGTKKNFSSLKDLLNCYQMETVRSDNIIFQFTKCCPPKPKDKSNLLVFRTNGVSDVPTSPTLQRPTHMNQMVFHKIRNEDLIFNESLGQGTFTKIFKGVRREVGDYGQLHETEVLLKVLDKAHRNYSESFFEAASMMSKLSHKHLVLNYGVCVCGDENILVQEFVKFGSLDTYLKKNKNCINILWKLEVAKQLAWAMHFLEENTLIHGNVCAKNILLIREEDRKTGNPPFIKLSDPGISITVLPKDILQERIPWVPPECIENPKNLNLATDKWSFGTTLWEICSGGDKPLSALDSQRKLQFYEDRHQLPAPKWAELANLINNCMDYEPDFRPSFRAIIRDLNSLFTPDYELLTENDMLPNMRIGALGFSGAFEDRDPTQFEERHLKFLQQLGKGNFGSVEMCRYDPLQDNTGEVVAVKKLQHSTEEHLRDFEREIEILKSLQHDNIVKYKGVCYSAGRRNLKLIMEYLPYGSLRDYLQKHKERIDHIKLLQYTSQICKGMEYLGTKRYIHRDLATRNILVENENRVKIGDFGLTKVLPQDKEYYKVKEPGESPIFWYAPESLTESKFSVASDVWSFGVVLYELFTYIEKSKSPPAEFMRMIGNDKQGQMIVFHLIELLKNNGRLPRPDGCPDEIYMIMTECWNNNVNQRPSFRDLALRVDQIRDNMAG
Data set [11] has as its target Myosin light chain kinase family member 4 (Homo sapiens) (UniProt Q86YV6). The experiment in a line: Inhibition of human wild type […] length MYLK4 (V79 to S380 residues) expressed in bacterial expression system assessed as remaining activity at 1 uM by Kinomescan assay relative to control.
Data set [12] addresses Mitogen-activated protein kinase kinase kinase kinase 2 (Homo sapiens) (UniProt Q12851). Kind of data set: Inhibition of human wild type partial length MAP4K2 (M1 to G318 residues) expressed in mammalian expression system assessed as remaining activity at 1 uM by Kinomescan assay relative to control.
The target in data set [13] is cAMP-dependent protein kinase catalytic subunit PRKX (Homo sapiens) (UniProt P51817). The experiment in a line: Inhibition of human wild type partial length PRKX (M1 to F358 residues) expressed in bacterial expression system assessed as remaining activity at 1 uM by Kinomescan assay relative to control.
For data set [14], the target named is Serine/threonine-protein kinase TAO2 (Homo sapiens) (UniProt Q9UL54). The experiment in a line: Inhibition of human wild type partial length TAOK2 (M1 to A320 residues) expressed in mammalian expression system assessed as remaining activity at 1 uM by Kinomescan assay relative to control.
Data set [15] deals with Citron Rho-interacting kinase (Homo sapiens) (UniProt O14578). Kind of data set: Inhibition of wild-type human partial length CIT (M68 to E432 residues) expressed in bacterial expression system assessed as residual binding level at 1 uM by Kinomescan method relative to control.
Data set [16] deals with Phosphatidylinositol 5-phosphate 4-kinase type-2 gamma (Homo sapiens) (UniProt Q8TBX8). The experiment in a line: Inhibition of human wild type full length PIP5K2C (M1 to A421 residues) expressed in mammalian expression system assessed as remaining activity at 1 uM by Kinomescan assay relative to control.
Sequence of Phosphatidylinositol 5-phosphate 4-kinase type-2 gamma (Homo sapiens) (Q8TBX8 whole entry, the tested form may be a part): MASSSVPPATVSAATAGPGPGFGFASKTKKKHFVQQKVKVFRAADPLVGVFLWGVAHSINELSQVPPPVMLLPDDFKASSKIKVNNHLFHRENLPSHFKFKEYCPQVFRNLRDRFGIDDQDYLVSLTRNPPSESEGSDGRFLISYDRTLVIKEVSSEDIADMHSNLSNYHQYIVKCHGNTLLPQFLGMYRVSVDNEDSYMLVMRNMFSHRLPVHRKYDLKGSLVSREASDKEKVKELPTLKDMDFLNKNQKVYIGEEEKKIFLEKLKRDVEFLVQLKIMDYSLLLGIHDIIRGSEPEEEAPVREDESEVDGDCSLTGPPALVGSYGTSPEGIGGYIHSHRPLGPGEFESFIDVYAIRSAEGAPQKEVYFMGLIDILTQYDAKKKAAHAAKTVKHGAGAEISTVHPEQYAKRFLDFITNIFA
Data set [17] addresses Dual serine/threonine and tyrosine protein kinase (Homo sapiens) (UniProt Q6XUX3). Kind of data set: Inhibition of human wild type full length RIPK5 (M1 to T929 residues) expressed in mammalian expression system assessed as remaining activity at 1 uM by Kinomescan assay relative to control.
Data set [18] addresses Serine/threonine-protein kinase PAK 4 (Homo sapiens) (UniProt O96013). The experiment in a line: Inhibition of human wild type PAK4 assessed as remaining activity at 1 uM by MRC screening assay relative to control.
In data set [19] the target is Mitogen-activated protein kinase kinase kinase kinase 5 (Homo sapiens) (UniProt Q9Y4K4). Kind of data set: Inhibition of human wild type MAP4K5 assessed as remaining activity at 1 uM by MRC screening assay relative to control.
Data set [20] concerns the target Phosphatidylinositol 4-phosphate 5-kinase type-1 gamma (Homo sapiens) (UniProt O60331). The experiment in a line: Inhibition of human wild type full length PIP5K1C (M1 to T668 residues) expressed in mammalian expression system assessed as remaining activity at 1 uM by Kinomescan assay relative to control.
The target of data set [21] is Dual specificity mitogen-activated protein kinase kinase 4 (Homo sapiens) (UniProt P45985). Kind of data set: Inhibition of human wild type partial length MEK4 (S84 to D399 residues) expressed in mammalian expression system assessed as remaining activity at 1 uM by Kinomescan assay relative to control.
In data set [22] the target is Serine/threonine-protein kinase TAO3 (Homo sapiens) (UniProt Q9H2K8). The experiment in a line: Inhibition of human wild type partial length TAOK3 (M1 to T316 residues) expressed in mammalian expression system assessed as remaining activity at 1 uM by Kinomescan assay relative to control.
For data set [23], the target named is Serine/threonine-protein kinase TAO1 (Homo sapiens) (UniProt Q7L7X3). The experiment in a line: Inhibition of human wild type TAOK1 assessed as remaining activity at 1 uM by MRC screening assay relative to control.
Data set [24] has as its system Calu-3. Kind of data set: Inhibition of lentivirus pseudotyped with SARS-CoV-2 spike glycoprotein uptake in human Calu-3 cells at 1 uM preincubated for 1 hr prior to viral infection for 12 hrs by fluorescence based analysis. In kind it is functional, cell-based.
The test system of data set [25] is SH-SY5Y. The experiment in a line: Induction of lysosome dysfunction in human SH-SY5Y cells at 5 uM incubated for 24 hrs by lyso-tracker red DND-99 based confocal microscopic method. Format: functional, cell-based.
Data set [26] is described as follows: (§1) Inhibition of His-6 tagged SARS-CoV-2 spike protein uptake in human Calu-3 cells at 1 uM incubated for 1 hr by fluorescence based analysis relative control. Format: functional.
Data set [27] in a line: Microsomal stability in CD-1 mouse liver microsomal assessed as parent compound remaining preincubated for 5 mins followed by NADPH addition measured after 30 mins by LC-TOFMS. Format: ADME, subcellular. The settings on record: liver microsomes, time 35 min, read-out: Stability.
Data set [28] is described as follows: (§2) Inhibition of His-6 tagged SARS-CoV-2 spike protein uptake in human Caco-2 cells at 1 uM incubated for 1 hr by fluorescence based analysis relative control. Format: functional.
Data set [29] concerns Calu-3. The description is as §1. In kind it is functional.
Data set [30] has as its system Caco-2. The description is as §2. Format: functional.
In data set [31] the target is Microtubule-associated serine/threonine-protein kinase 1 (Homo sapiens) (UniProt Q9Y2H9). The experiment in a line: Inhibition of wild-type human partial length MAST1 (S346 to V730 residues) expressed in mammalian expression system assessed as residual activity at 1 uM by Kinomescan method relative to control.

The source of these data is ChEMBL document CHEMBL5108045, “Identification and Utilization of a Chemical Probe to Interrogate the Roles of PIKfyve in the Lifecycle of β-Coronaviruses” (J Med Chem, 2022).

Each structure is given as a SMILES string. Activity calls are given as the source filed them. No cut-off for these calls is given here.

Broadly, the inhibition is the relative decrease from the control value, in per cent.

T1 sequence (Q9Y2I7 whole entry): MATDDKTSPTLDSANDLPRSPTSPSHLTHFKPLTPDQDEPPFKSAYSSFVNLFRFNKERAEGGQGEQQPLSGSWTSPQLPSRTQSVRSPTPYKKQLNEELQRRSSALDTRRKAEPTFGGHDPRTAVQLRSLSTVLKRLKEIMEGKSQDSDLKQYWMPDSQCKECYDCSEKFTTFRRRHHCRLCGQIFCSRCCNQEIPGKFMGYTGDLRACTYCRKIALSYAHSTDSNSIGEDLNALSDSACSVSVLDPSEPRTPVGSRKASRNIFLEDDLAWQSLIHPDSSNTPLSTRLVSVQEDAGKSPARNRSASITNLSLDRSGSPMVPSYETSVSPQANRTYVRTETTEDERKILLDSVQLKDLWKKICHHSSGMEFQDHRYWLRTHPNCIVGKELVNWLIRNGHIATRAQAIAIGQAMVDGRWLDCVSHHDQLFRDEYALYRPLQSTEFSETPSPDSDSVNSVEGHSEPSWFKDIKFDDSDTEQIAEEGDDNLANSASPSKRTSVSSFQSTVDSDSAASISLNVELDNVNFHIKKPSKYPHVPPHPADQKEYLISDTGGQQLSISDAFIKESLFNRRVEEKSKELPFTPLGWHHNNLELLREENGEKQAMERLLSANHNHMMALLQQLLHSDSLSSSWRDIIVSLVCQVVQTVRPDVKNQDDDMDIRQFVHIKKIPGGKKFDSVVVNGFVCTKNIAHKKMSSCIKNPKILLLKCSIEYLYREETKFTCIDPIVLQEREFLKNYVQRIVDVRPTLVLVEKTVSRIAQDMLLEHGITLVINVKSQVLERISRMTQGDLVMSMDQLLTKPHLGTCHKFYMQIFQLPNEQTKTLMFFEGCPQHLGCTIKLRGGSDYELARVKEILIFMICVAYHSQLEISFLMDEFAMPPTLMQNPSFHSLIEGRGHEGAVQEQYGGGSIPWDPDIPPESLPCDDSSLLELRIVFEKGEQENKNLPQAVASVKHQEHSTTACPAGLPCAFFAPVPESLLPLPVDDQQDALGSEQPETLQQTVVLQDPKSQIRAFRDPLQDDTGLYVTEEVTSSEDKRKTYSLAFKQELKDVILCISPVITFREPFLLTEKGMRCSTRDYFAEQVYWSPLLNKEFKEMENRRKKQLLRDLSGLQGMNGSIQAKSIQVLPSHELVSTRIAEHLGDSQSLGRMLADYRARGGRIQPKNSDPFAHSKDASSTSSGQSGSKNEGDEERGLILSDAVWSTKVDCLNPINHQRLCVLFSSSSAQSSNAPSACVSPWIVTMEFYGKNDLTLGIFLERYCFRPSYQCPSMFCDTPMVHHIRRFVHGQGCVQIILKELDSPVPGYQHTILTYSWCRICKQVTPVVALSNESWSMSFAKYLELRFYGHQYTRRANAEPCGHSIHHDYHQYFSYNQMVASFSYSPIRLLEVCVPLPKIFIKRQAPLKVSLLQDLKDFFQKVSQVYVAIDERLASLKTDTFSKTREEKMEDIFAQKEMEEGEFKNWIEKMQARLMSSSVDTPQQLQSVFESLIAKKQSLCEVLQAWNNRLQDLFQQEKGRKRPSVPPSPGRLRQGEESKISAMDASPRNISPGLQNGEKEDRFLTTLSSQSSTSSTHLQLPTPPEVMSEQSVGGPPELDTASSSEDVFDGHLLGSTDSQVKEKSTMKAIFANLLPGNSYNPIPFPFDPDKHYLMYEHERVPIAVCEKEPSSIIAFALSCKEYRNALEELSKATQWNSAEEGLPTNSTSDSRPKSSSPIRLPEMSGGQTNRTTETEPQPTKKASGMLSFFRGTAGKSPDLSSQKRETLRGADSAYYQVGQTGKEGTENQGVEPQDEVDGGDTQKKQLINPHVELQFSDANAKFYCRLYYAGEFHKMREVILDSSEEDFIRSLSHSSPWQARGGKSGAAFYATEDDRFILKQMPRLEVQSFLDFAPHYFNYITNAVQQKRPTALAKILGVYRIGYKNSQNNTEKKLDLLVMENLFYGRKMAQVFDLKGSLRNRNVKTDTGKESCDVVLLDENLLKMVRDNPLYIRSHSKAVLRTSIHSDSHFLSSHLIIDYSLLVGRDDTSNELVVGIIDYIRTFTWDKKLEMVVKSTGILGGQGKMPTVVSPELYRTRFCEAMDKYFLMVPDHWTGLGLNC
Sequence of Serine/threonine-protein kinase PAK 5 (Homo sapiens) (Q9P286 whole entry, looked up, the tested form may be a part): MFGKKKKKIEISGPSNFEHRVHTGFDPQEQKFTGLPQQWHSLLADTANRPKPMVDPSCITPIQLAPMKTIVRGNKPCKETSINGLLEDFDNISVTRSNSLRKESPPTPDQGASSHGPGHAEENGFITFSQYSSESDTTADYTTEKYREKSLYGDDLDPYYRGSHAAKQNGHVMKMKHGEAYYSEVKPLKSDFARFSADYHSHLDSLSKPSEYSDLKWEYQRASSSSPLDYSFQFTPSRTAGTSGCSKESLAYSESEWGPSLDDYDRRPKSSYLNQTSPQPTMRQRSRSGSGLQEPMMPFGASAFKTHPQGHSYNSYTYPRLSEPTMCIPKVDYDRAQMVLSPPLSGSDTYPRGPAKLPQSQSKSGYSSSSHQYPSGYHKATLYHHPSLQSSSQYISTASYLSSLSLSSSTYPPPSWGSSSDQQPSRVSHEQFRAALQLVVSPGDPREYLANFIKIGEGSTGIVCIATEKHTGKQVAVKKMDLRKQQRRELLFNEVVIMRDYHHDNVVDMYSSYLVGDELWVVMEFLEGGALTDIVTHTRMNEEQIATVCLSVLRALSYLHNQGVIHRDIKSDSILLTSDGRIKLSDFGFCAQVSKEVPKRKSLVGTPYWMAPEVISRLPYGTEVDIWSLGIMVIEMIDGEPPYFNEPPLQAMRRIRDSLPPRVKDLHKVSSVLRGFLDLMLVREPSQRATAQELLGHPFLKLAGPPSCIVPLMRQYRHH
Sequence of Serine/threonine-protein kinase PAK 4 (Homo sapiens) (O96013 whole entry, looked up): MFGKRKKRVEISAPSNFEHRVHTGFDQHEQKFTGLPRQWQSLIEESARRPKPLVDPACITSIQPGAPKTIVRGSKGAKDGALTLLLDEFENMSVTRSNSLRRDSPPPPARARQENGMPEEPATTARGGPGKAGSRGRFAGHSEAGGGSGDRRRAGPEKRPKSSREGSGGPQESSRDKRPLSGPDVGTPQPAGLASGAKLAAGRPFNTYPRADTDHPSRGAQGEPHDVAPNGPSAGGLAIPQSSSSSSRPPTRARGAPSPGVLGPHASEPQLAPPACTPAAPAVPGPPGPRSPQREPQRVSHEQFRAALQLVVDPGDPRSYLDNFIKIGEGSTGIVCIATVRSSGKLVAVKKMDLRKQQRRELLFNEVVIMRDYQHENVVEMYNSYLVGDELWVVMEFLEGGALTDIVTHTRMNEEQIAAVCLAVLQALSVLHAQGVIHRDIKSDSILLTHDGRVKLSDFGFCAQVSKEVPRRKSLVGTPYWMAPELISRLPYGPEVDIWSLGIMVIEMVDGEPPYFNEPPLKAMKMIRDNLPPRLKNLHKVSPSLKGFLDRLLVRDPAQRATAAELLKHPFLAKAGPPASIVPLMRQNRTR

For the molecule `CC(C)C(O)C#Cc1ccc2[nH]c3c(c2c1)-c1nc(N)ncc1CC3` (stereo not given), the IC50 is 1170 nM in [1], 1920 nM in [2] and 1910 nM in data set [2] (read-out: pIC50 (converted)).

On to `CN(C)CC#Cc1ccc2[nH]c3c(c2c1)-c1nc(N)ncc1CC3`, for which the IC50 in data set [1] was 123 nM.

In the case of `Nc1ncc2c(n1)-c1c([nH]c3ccc(C#Cc4ccncc4)cc13)CCCC2`, the values for the IC50 in [3] and in [1] were 580 nM and 5290 nM, respectively.

As for `CCC(CC)COC(=O)[C@H](C)N[P@](=O)(OC[C@H]1O[C@@](C#N)(c2ccc3c(N)ncnn23)[C@H](O)[C@@H]1O)Oc1ccccc1`, the IC50 in data set [4] came to 86.4 nM.

`CC(C)(O)C#Cc1ccc2[nH]c3c(c2c1)-c1nc(N)ncc1CCC3`: the Activity in [5], in data set [6], in [7], in data set [8], in data set [9] and in [10] was less than 10% each time. Also, the Activity in data set [11], in [12], in data set [13], in data set [14], in data set [15] and in data set [16] was less than 10% each time. Moreover, the Activity in [17], in [18], in [19], in data set [20], in data set [21] and in data set [22] was less than 10% in each case. The Activity in [23] was less than 10%.

On to `Cn1cc(-c2ccc3[nH]c4c(c3c2)-c2nc(N)ncc2CC4)cn1`, for which the IC50 in data set [3] is 34 nM; in [1], 4970 nM; in [2], 5350 nM; in data set [2] (read-out: pIC50 (converted)), 5370 nM.

Regarding `CC(C)(O)C#Cc1ccc2[nH]c3c(c2c1)-c1nc(N)ncc1CCCC3`, the IC50 in data set [3] is 61 nM; in data set [1], 2450 nM; in data set [2] it was 8470 nM; in [2] (read-out: pIC50 (converted)), 8510 nM.

On to `Cc1cccc(/C=N/Nc2cc(N3CCOCC3)n3nc(-c4ccncc4)cc3n2)c1`, for which the IC50 in [2] is 40.4 nM; in data set [2] (read-out: pIC50 (converted)) it was 40.7 nM.

As to `Nc1ncc2c(n1)-c1c([nH]c3ccc(C#Cc4ccncc4)cc13)CCC2`, the IC50 was 22 nM in [3], 885 nM in data set [1], 485 nM in data set [2] and 490 nM in data set [2] (read-out: pIC50 (converted)).

In the case of `Nc1ncc2c(n1)-c1c([nH]c3ccc(C#CC4CC4)cc13)CCCC2`, the IC50 is 75 nM in data set [3], 700 nM in data set [1], 1800 nM in data set [2] and 1780 nM in data set [2] (read-out: pIC50 (converted)).

For `Cn1cncc1C#Cc1ccc2[nH]c3c(c2c1)-c1nc(N)ncc1CC3`, the IC50 in data set [3] was 77 nM; in data set [1] it was greater than 10000 nM; in [2], 8050 nM; in data set [2] (read-out: pIC50 (converted)), 8130 nM.

As for `Nc1ncc2c(n1)-c1c([nH]c3ccc(-c4ccc(F)cc4)cc13)CCCC2`, the IC50 in data set [1] was 2560 nM.

As for `CN(C)CC#Cc1ccc2[nH]c3c(c2c1)-c1nc(N)ncc1CCC3`, the inhibition entry in data set [24] was “Active”. Also, the outcome in data set [25] was Active. Besides, the inhibition at 1 µM was greater than 75% in [26] and greater than 91% in data set [28]. In data set [27], the remaining at 0.5 h stood at 12.6%.

In the case of `Cc1cccc(/C=N/Nc2cc(N3CCOCC3)nc(OCCc3ccccn3)n2)c1`, the inhibition result in data set [24], in [29] and in data set [30] was “Active” each time. The outcome in data set [25] was Active.

In data set [1], `CC(C)C(O)C#Cc1ccc2[nH]c3c(c2c1)-c1nc(N)ncc1CCC3` (stereo not given) returned an IC50 of 45.7 nM.

Consider `CN(C)CC#Cc1ccc2[nH]c3c(c2c1)-c1nc(N)ncc1CCCC3`, for which the IC50 in data set [3] came to 430 nM; in [1] it was 683 nM.

In data set [1], `Nc1ncc2c(n1)-c1c([nH]c3ccc(C#CC4CC4)cc13)CC2` displayed an IC50 of 300 nM.

Regarding `Cn1cncc1C#Cc1ccc2[nH]c3c(c2c1)-c1nc(N)ncc1CCCC3`, the IC50 in data set [3] was 290 nM; in data set [1], greater than 10000 nM.

`CC(C)(O)C#Cc1ccc2[nH]c3c(c2c1)-c1nc(N)ncc1CC3` came in with an IC50 in data set [1] of 220 nM.

For `Nc1ncc2c(n1)-c1c([nH]c3ccc(C4CC4)cc13)CCCC2`, the Activity in data set [31] is 32%. The IC50 in data set [4], in data set [2] and in data set [2] (read-out: pIC50 (converted)) was greater than 10000 nM in each case.

Turning to `Cn1cc(-c2ccc3[nH]c4c(c3c2)-c2nc(N)ncc2CCC4)cn1`, the IC50 in [3] was 26 nM; in data set [1], 1560 nM; in [2] it was 666 nM; in [2] (read-out: pIC50 (converted)), 661 nM.

Consider `Nc1ncc2c(n1)-c1c([nH]c3ccc(-c4ccc(F)cc4)cc13)CCC2`, for which, in data set [24], the inhibition entry is “Active”. Further, the outcome in [25] was Active. For the same molecule, the IC50 is 9.3 nM in data set [3]; 73.3 nM in data set [4]; 11.4 nM in data set [1]; 71 nM in [2]; 70.8 nM in data set [2] (read-out: pIC50 (converted)).

`Nc1ncc2c(n1)-c1c([nH]c3ccc(C#Cc4ccncc4)cc13)CC2` had an IC50 in data set [1] of 2980 nM.

On to `Nc1ncc2c(n1)-c1c([nH]c3ccc(-c4ccc(F)cc4)cc13)CC2`, for which the IC50 in data set [3] is 8.2 nM; in [1] it was 380 nM; in data set [2], 713 nM; in data set [2] (read-out: pIC50 (converted)), 708 nM.
